Peptide text beside a SMILES is read from it. * marks the point of attachment. Palmitoyl = CCCCCCCCCCCCCCCC(=O)*
Legend:
[1] = TEM nanofiber length of ApoA1-Ac2-26 PA co-assemblies; type: physicochemical; settings: aged at least 24 hours at 4° C.
Protocol: TEM: Conventional TEM images were taken on a FEI Tecnai T-12 TEM at 80 kV with a Gatan Orius® 2 k×2 k CCD camera. PAs at 1 mM in phosphate buffered saline (PBS) were prepared for TEM by pipetting 8 μL atop copper supports that were covered with thin carbon foil 400-mesh and treated with glow discharge. After two minutes, samples were rinsed with deionized water and stained with 2% uranyl acetate for two minutes before imaging. PA nanofiber length was quantified manually using Fiji open source image processing software.

J774.2 macrophage = experiment: Cytocompatibility, MUSE Count and Viability Assay (Example 2); type: cell-based, mouse; settings: 24 hours of treatment, 32 μM Ac2-26
Protocol: Macrophage culture and characterization: J774.2 murine macrophages (Sigma-Aldrich) were expanded at 4-9×10^5 cells/mL in growth media consisting of Dulbecco's Modified Eagle's Medium (Sigma-Aldrich) containing 4.5 g/L glucose, 2 mM L-glutamine, 10% v/v FBS, 100 U/m penicillin, and 100 μg/mL streptomycin. Cells were passaged using Accutase™ (StemCell Technologies) and used at passage 6-9 for all experiments. The cells were detached with Accutase™ and gentle scraping, counted, and re-suspended in flow cytometry buffer containing 2% w/v bovine serum albumin (BSA, heat shock fraction free of proteases, globulin, and fatty acids, Sigma-Aldrich) and 0.1% w/v sodium azide (Sigma-Aldrich). To minimize non-specific binding of immunoglobin to Fc receptors, macrophages were incubated with anti-mouse CD16/32 antibody (TrueStain FcX™, Biolegend) at 1 μg/1×10^5 cells for 10 minutes at 4° C. […] All samples were analyzed using Attune NxT Acoustic Focusing Cytometer (Thermo Fisher) with at least 2000 events counted per condition.
Cytocompatibility: Macrophages were seeded at 2.1×10^5 cells/cm^2 on 24 well plates and treated with 32 μM of Ac2-26 or 320 μM PA co-assemblies (final Ac2-26 concentration of 32 μM) for 24 hours. […] Cells were detached by Accutase treatment for 20 minutes and counted using a MUSE® Count and Viability Assay Kit and cytometer (Emd millipore).

LDLR KO mice = experiment: Atherosclerosis treatment study; type: in vivo, mouse; settings: both sexes, twice per week over eight weeks, percent of atherosclerosis in the aortic root
Protocol: Mouse model of atherosclerosis: To study atherosclerosis, the LDLR KO mouse was used. LDLR KO mice are fed a high fat “western” diet (Teklad TD.88137) starting at 4 weeks of age. This diet consists of 20% fat, 0.2% cholesterol, and 34% high sucrose. LDLR KO mice fed this diet typically develop severe hypercholesterolemia (>800 mg/dL) and hypertriglyceridemia (>300 mg/dL) after only 2 weeks. By 12 weeks on the high fat diet, atherosclerotic lesions are detected in the aortic root and aortic arch on cryosections stained with Oil Red O (Sigma). Atherosclerosis was quantified in the aortic root as a percentage of the aortic root by taking the atherosclerotic area divided by the total aortic root area. Measurements were made with ImageJ software. All protocols for the animal model and procedures in this manuscript were approved by Northwestern University's Institutional Animal Care and Use Committee.
(§1) Blood samples were collected at the end of the treatment study for toxicology analysis. Mice were euthanized three days after their 16th treatment.
(§2) Tissue processing and imaging: Mice were sacrificed and euthanized under inhaled isoflurane anesthesia by diaphragm disruption and exsanguination. Phlebotomy was performed through direct right ventricular cardiac puncture using a 1 mL syringe and 25 G needle. Perfusion was performed through left ventricular cardiac puncture with 10 mL PBS and 10 mL 10% sucrose solution. The lungs, liver, spleen, kidney, aortic root, aortic arch, and descending aorta were harvested and stored in 10% sucrose for 20 minutes. Organs and vessels were then flash-frozen in Optimal Cutting Temperature embedding medium 4583 (Tissue-Tek®) with liquid nitrogen. Frozen specimens were stored at −80° C. and cryosectioned at […]. Confocal microscopy was performed on a Nikon AIR microscope. Two sets of images were acquired with a 10× Plan Fluor NA 0.3 objective. PAs were identified through quantification of the Alexa Fluor® 546 conjugated dye with 561 nm excitation and a 600/50 nm emission filter.
Images were acquired with spectral detection and spectrally unmixed to accurately separate green autofluorescence from the red Alexa Fluor® 546 signal. Brightfield and fluorescent microscopy were performed using a Zeiss Axio Imager.A2 microscope with AxioVision software (release 4.8.2, 06-2010). All confocal and fluorescent sections were mounted with ProGold Diamond mounting media (Sigma). Slides were stained with Oil Red O to image and quantify atherosclerosis under brightfield microscopy. The elastic laminae were identified using the green fluorescent protein (GFP) filter with an exposure time of 3500 ms under 5× magnification. Nanofibers were identified in the aortic root by presence of Alexa Fluor® 546 on the Cy3 filter under 5-10× magnification, and in the internal organs under 20× magnification. Fluorescent pixel quantification in the aortic root and within organs was performed with ImageJ software.
(§3) Statistics: The effect of treatments and sex on atherosclerosis progression in mice was analyzed using one- or two-factor analysis of variance (ANOVA) followed by a post-hoc student's t-test. The toxicological effects of treatments were also analyzed using two-factor ANOVA and a post-hoc student's t-test. Toxicological effects of treatments on liver proteins AST, ALT, and ALP were further analyzed using ordinal logistic regression models of likelihood ratio tests, followed by a post-hoc Wald test

[2] = Treatment study serum chemistry (toxicology analysis); type: in vivo, mouse; settings: mouse, in vivo
Protocol: as §1, §2, §3

10% MMP-Ac2-26 PA: co-assembly of 10 mol % MMP-Ac2-26 PA, 50 mol % E2 filler PA, and 40% ApoA1 PA (VVAAEEGGGPQGIWGQGKAMVSEFLKQAWFIENEEQEYVQTVK)
median nanofiber length [1]: 159 nm | J774.2 macrophage viability (J774.2 macrophage): No significant differences

CCCCCCCCCCCCCCCC(=O)N[C@H](C(=O)N[C@H](C(=O)N[C@@H](C)C(=O)N[C@@H](C)C(=O)N[C@@H](CCC(=O)O)C(=O)N[C@@H](CCC(=O)O)C(=O)NCC(=O)N[C@@H](CC(=O)O)C(=O)N[C@@H](Cc1c[nH]c2ccccc12)C(=O)N[C@@H](Cc1ccccc1)C(=O)N[C@@H](CCCCN)C(=O)N[C@@H](C)C(=O)N[C@@H](Cc1ccccc1)C(=O)N[C@@H](Cc1ccc(O)cc1)C(=O)N[C@@H](CC(=O)O)C(=O)N[C@@H](CCCCN)C(=O)N[C@H](C(=O)N[C@@H](C)C(=O)N[C@@H](CCC(=O)O)C(=O)N[C@@H](CCCCN)C(=O)N[C@@H](Cc1ccccc1)C(=O)N[C@@H](CCCCN)C(=O)N[C@@H](CCC(=O)O)C(=O)N[C@@H](C)C(=O)N[C@@H](Cc1ccccc1)C(N)=O)C(C)C)C(C)C)C(C)C [ApoA1 PA] (Palmitoyl-VVAAEEGDWFKAFYDKVAEKFKEAF-NH2)
atherosclerosis progression in comparison to the PBS control (LDLR KO mice): significantly decreased | Creatine [2]: 0 U/L | aspartate aminotransferase (AST) in the blood in comparison to PBS [2]: Neither ApoA1-LXR PAs nor ApoA1 PAs increased AST levels

Reference: patent US12214076B2, “Drug delivery vehicles for atherosclerosis nanomedicine” (Northwestern University, priority 2019, dated 2025)
